Reference: ChEMBL document CHEMBL1148906, “Two pyranocoumarins from the seeds of Calophyllum polyanthum” (2004)

Test system: Human alphaherpesvirus 2
Experiment: Antiherpetic activity against HSV2 in african green monkey Vero cells assessed as inhibition of virus-induced cytopathic effect
Assay type: functional
Details: Human alphaherpesvirus 2, Vero

Row | SMILES | GI50
1 | CC(C)=CCc1c(O)c2c(c3c1OC(=O)C[C@H]3c1ccccc1)O[C@@H](C)[C@@H](C)C2=O [CALOPOLYANOLIDE D] | > 250 µg/mL
2 | CC(C)=CCc1c(O)c2c(c3c1OC(=O)C[C@H]3c1ccccc1)O[C@@H](C)[C@H](C)C2=O [CALOPOLYANOLIDES C] | > 250 µg/mL
